# Assays:
# Staphylococcus aureus [1] = test: Antimicrobial activity against Staphylococcus aureus NCTC 4163 after 24 hr by two-fold serial dilution method; assay type: functional; details: NCTC 4163, 24 h
# Saccharomyces cerevisiae [2] = test: Antimicrobial activity against Saccharomyces cerevisiae ATCC 9763 after 48 hr by agar cup diffusion technique; assay type: functional
# Bacillus spizizenii [3] = test: Antimicrobial activity against Bacillus subtilis subsp. spizizenii ATCC 6633 after 24 hr by agar cup diffusion technique; assay type: functional
# Candida albicans [4] = test: Antimicrobial activity against Candida albicans NCTC 2708 after 48 hr by agar cup diffusion technique; assay type: functional
# Pseudomonas aeruginosa [5] = test: Antimicrobial activity against Pseudomonas aeruginosa ATCC 9027 after 24 hr by agar cup diffusion technique; assay type: functional
# Staphylococcus aureus [6] = test: Antimicrobial activity against Staphylococcus aureus NCTC 4163 after 24 hr by agar cup diffusion technique; assay type: functional
# Escherichia coli = test: Antimicrobial activity against Escherichia coli 5933 after 24 hr by agar cup diffusion technique; assay type: functional
# Proteus vulgaris [7] = test: Antimicrobial activity against Proteus vulgaris ATCC 49132 after 24 hr by agar cup diffusion technique; assay type: functional
# Saccharomyces cerevisiae [8] = test: Antimicrobial activity against Saccharomyces cerevisiae ATCC 9763 after 48 hr by two-fold serial dilution method; assay type: functional; details: ATCC 9763, 48 h
# Candida albicans [9] = test: Antimicrobial activity against Candida albicans NCTC 2708 after 48 hr by two-fold serial dilution method; assay type: functional; details: NCTC 2708, 48 h
# Aspergillus niger [10] = test: Antimicrobial activity against Aspergillus niger ATCC 16404 after 48 hr by two-fold serial dilution method; assay type: functional; details: ATCC 16404, 48 h
# Aspergillus terreus = test: Antimicrobial activity against Aspergillus terreus after 48 hr by two-fold serial dilution method; assay type: functional
# MCF7 = test: Anticancer activity against Homo sapiens (human) MCF7 cells assessed as cell growth at 100 uM after 48 hr by Alamar blue assay; assay type: functional; details: MCF7, 48 h, read-out: Activity
# Salmonella typhi [11] = test: Antimicrobial activity against Salmonella enterica subsp. enterica serovar Typhi ATCC 13311 after 24 hr by agar cup diffusion technique; assay type: functional
# NCI-H460 = test: Anticancer activity against Homo sapiens (human) NCI-H460 cells assessed as cell growth at 100 uM after 48 hr by Alamar blue assay; assay type: functional; details: NCI-H460, 48 h, read-out: Activity
# Aspergillus niger [12] = test: Antimicrobial activity against Aspergillus niger ATCC 16404 after 48 hr by agar cup diffusion technique; assay type: functional
# SF-268 = test: Anticancer activity against Homo sapiens (human) SF268 cells assessed as cell growth at 100 uM after 48 hr by Alamar blue assay; assay type: functional; details: SF-268, 48 h, read-out: Activity
# [13] = tested on: Human immunodeficiency virus 1; test: Antiviral activity against Human immunodeficiency virus 1 infected CEM cells assessed as inhibition of virus-induced cytopathic effect at 2 X 10^-4 M by XTT assay; assay type: functional; details: Human immunodeficiency virus 1, CCRF-CEM
# Proteus vulgaris [14] = test: Antimicrobial activity against Proteus vulgaris ATCC 49132 after 24 hr by two-fold serial dilution method; assay type: functional; details: ATCC 49132, 24 h
# CCRF-CEM = test: Cytotoxicity against Homo sapiens (human) CEM cells by XTT assay; assay type: cell-based
# [15] = tested on: Human immunodeficiency virus 1; test: Antiviral activity against Human immunodeficiency virus 1 infected CEM cells assessed as inhibition of virus-induced cytopathic effect at 2 X 10^-5 M by XTT assay; assay type: functional; details: Human immunodeficiency virus 1, CCRF-CEM
# Bacillus spizizenii [16] = test: Antimicrobial activity against Bacillus subtilis subsp. spizizenii ATCC 6633 after 24 hr by two-fold serial dilution method; assay type: functional; details: ATCC 6633, 24 h
# Salmonella typhi [17] = test: Antimicrobial activity against Salmonella enterica subsp. enterica serovar Typhi ATCC 13311 after 24 hr by two-fold serial dilution method; assay type: functional; details: ATCC 13311, 24 h
# Pseudomonas aeruginosa [18] = test: Antimicrobial activity against Pseudomonas aeruginosa ATCC 9027 after 24 hr by two-fold serial dilution method; assay type: functional; details: ATCC 9027, 24 h
compound,measurement,setting,value
CCSc1nnc2n(C)c3c(=O)n(C)c(=O)n(C)c3n12,MIC,Staphylococcus aureus [1],< 200 mg/L
same,inhibition zone (IZ),Saccharomyces cerevisiae [2],13 mm
same,inhibition zone (IZ),Bacillus spizizenii [3],13 mm
same,inhibition zone (IZ),Candida albicans [4],11 mm
same,inhibition zone (IZ),Pseudomonas aeruginosa [5],19 mm
same,inhibition zone (IZ),Staphylococcus aureus [6],20 mm
same,inhibition zone (IZ),Escherichia coli,12 mm
same,inhibition zone (IZ),Proteus vulgaris [7],19 mm
Clc1ccccc1C(c1ccccc1)(c1ccccc1)n1ccnc1 [CLOTRIMAZOLE],MIC,Saccharomyces cerevisiae [8],5 mg/L
same,MIC,Candida albicans [9],5 mg/L
same,MIC,Aspergillus niger [10],10 mg/L
same,MIC,Aspergillus terreus,10 mg/L
Cn1c(=O)c2c(n(C)c1=O)n1c(-c3ccccc3)nnc1n2C,growth at 100 µM,MCF7,84%
same,inhibition zone (IZ),Salmonella typhi [11],11 mm
same,inhibition zone (IZ),Saccharomyces cerevisiae [2],15 mm
same,inhibition zone (IZ),Bacillus spizizenii [3],15 mm
same,inhibition zone (IZ),Candida albicans [4],12 mm
same,growth at 100 µM,NCI-H460,98%
same,inhibition zone (IZ),Pseudomonas aeruginosa [5],17 mm
same,inhibition zone (IZ),Escherichia coli,14 mm
same,inhibition zone (IZ),Aspergillus niger [12],16 mm
same,growth at 100 µM,SF-268,90%
same,inhibition zone (IZ),Proteus vulgaris [7],19 mm
Cn1c(=O)c2nc3[nH]nc(C#N)c(=O)n3c2n(C)c1=O,inhibition at 200 µM,[13],10.9%
same,inhibition zone (IZ),Saccharomyces cerevisiae [2],14 mm
same,inhibition zone (IZ),Candida albicans [4],15 mm
same,MIC,Proteus vulgaris [14],< 100 mg/L
same,IC50,CCRF-CEM,> 200 µM
same,inhibition zone (IZ),Pseudomonas aeruginosa [5],16 mm
same,inhibition zone (IZ),Staphylococcus aureus [6],14 mm
same,inhibition zone (IZ),Escherichia coli,12 mm
same,inhibition zone (IZ),Proteus vulgaris [7],22 mm
Cn1c(=O)c2nc3[nH]nc(C(=O)O)c(=O)n3c2n(C)c1=O,inhibition at 20 µM,[15],3.73%
same,inhibition zone (IZ),Saccharomyces cerevisiae [2],14 mm
same,inhibition zone (IZ),Bacillus spizizenii [3],14 mm
same,inhibition zone (IZ),Candida albicans [4],13 mm
same,MIC,Proteus vulgaris [14],< 200 mg/L
same,IC50,CCRF-CEM,> 200 µM
same,inhibition zone (IZ),Pseudomonas aeruginosa [5],16 mm
same,inhibition zone (IZ),Staphylococcus aureus [6],14 mm
same,MIC,Aspergillus niger [10],< 200 mg/L
same,inhibition zone (IZ),Escherichia coli,13 mm
same,inhibition zone (IZ),Aspergillus niger [12],20 mm
same,inhibition zone (IZ),Proteus vulgaris [7],21 mm
CC1(C)S[C@@H]2[C@H](NC(=O)[C@H](N)c3ccccc3)C(=O)N2[C@H]1C(=O)O [AMPICILLIN],MIC,Staphylococcus aureus [1],5 mg/L
same,MIC,Bacillus spizizenii [16],5 mg/L
same,MIC,Proteus vulgaris [14],50 mg/L
same,MIC,Salmonella typhi [17],100 mg/L
same,MIC,Pseudomonas aeruginosa [18],100 mg/L
Cn1c(=O)c2c(n(C)c1=O)n1c(-c3ccc(Br)cc3)nnc1n2C,inhibition zone (IZ),Saccharomyces cerevisiae [2],13 mm
same,inhibition zone (IZ),Bacillus spizizenii [3],11 mm
same,inhibition zone (IZ),Candida albicans [4],14 mm
same,MIC,Proteus vulgaris [14],< 100 mg/L
same,inhibition zone (IZ),Pseudomonas aeruginosa [5],20 mm
same,inhibition zone (IZ),Staphylococcus aureus [6],14 mm
same,MIC,Aspergillus niger [10],< 100 mg/L
same,inhibition zone (IZ),Escherichia coli,12 mm
same,inhibition zone (IZ),Aspergillus niger [12],22 mm
same,inhibition zone (IZ),Proteus vulgaris [7],22 mm
same,MIC,Pseudomonas aeruginosa [18],< 200 mg/L
CSc1nnc2n(C)c3c(=O)n(C)c(=O)n(C)c3n12,MIC,Staphylococcus aureus [1],< 200 mg/L
same,inhibition at 200 µM,[13],4.86%
same,inhibition zone (IZ),Saccharomyces cerevisiae [2],12 mm
same,inhibition zone (IZ),Candida albicans [4],11 mm
same,IC50,CCRF-CEM,> 200 µM
same,inhibition zone (IZ),Pseudomonas aeruginosa [5],20 mm
same,inhibition zone (IZ),Staphylococcus aureus [6],20 mm
same,inhibition zone (IZ),Escherichia coli,12 mm
same,inhibition zone (IZ),Proteus vulgaris [7],19 mm
same,MIC,Pseudomonas aeruginosa [18],< 200 mg/L

# Source: ChEMBL document CHEMBL3046414, “Synthesis, anticancer, anti-HIV-1, and antimicrobial activity of some tricyclic triazino and triazolo[4,3-e]purine derivatives” (Med Chem Res, 2012)
